Assay results taken from patent US9567345B2, “Pharmaceutically active pyrazolo-triazine derivatives” (LEAD DISCOVERY CENTER GMBH, priority 2012, dated 2017).
Like-named read-outs stand apart in the source and are kept apart here.

Columns and labels:
Assay type in all cases: biochemical
CDK2/CycA = molecular target: T1, CDK2/CycA (Homo sapiens, UniProt P24941); assay: CDK2 Enzymatic Activity Assay (Lance Kinase Activity Assay, FRET); conditions: for IC50: Table 5B, class symbols per IC50 [nM] ranges of b581, read-out: CDK2: Selectivity of CDK7 inhibition over CDK2 inhibition
T1 construct: purchased Proqinase
Method in brief: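 LANCE TR-FRET assay: CDK2/CycA phosphorylated ULight-MBP peptide in HEPES 50 mM pH 7.5 buffer with MgCl2, EGTA, DTT and Tween-20 for 1 h at room temperature. Eu-anti-phospho-MBP antibody with EDTA was then added for 1 h before reading. IC50 was fitted from 8-point, 1:3 sigmoidal dose-response curves.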

CDK7/CycH/Mat1 = CDK7/CycH/Mat1 (Homo sapiens, UniProt P50613); assay: CDK7 Enzymatic Activity Assay (Lance Kinase Activity Assay, FRET)
Chain of CDK7/CycH/Mat1 (P50613 whole entry): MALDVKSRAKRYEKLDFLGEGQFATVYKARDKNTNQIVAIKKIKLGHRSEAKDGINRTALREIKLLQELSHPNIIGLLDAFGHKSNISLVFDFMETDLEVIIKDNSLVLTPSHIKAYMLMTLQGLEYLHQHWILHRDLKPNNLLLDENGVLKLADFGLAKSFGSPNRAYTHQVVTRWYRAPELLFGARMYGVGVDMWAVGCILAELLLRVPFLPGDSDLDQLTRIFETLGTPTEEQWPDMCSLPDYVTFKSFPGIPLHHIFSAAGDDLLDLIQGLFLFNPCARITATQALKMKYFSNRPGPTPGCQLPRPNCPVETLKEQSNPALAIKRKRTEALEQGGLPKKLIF
Method in brief: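 Ulight-MBP peptide phosphorylation by CDK7/CycH/Mat1 in HEPES 50 mM pH 7.5, MgCl2, EGTA, DTT, Tween-20; 1 h at room temperature, then EDTA stop with Eu-anti-phospho-MBP antibody for 1 h and TR-FRET read. Compounds in 8-point 1:3 DMSO series; IC50 from sigmoidal dose-response fit.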

CDK9/Cyclin T1 = CDK9/Cyclin T1 (Homo sapiens, UniProt P50750); assay: CDK9 Enzymatic Activity Assay (Lance Kinase Activity Assay, FRET); conditions: for IC50: Table 5B, class symbols per IC50 [nM] ranges of b581, read-out: CDK9: Selectivity of CDK7 inhibition over CDK9 inhibition
Chain of CDK9/Cyclin T1 (P50750 whole entry): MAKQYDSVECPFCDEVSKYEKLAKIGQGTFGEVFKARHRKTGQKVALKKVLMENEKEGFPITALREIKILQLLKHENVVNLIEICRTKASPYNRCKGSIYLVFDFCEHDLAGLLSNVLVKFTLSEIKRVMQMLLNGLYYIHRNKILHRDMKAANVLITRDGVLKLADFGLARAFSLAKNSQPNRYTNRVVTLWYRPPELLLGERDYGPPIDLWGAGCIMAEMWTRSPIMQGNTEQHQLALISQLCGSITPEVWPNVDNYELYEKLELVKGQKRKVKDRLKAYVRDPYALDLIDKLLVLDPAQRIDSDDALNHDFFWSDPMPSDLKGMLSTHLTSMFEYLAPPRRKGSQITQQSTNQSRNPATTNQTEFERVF
Chain of CDK9/Cyclin T1 (O60563 whole entry partner): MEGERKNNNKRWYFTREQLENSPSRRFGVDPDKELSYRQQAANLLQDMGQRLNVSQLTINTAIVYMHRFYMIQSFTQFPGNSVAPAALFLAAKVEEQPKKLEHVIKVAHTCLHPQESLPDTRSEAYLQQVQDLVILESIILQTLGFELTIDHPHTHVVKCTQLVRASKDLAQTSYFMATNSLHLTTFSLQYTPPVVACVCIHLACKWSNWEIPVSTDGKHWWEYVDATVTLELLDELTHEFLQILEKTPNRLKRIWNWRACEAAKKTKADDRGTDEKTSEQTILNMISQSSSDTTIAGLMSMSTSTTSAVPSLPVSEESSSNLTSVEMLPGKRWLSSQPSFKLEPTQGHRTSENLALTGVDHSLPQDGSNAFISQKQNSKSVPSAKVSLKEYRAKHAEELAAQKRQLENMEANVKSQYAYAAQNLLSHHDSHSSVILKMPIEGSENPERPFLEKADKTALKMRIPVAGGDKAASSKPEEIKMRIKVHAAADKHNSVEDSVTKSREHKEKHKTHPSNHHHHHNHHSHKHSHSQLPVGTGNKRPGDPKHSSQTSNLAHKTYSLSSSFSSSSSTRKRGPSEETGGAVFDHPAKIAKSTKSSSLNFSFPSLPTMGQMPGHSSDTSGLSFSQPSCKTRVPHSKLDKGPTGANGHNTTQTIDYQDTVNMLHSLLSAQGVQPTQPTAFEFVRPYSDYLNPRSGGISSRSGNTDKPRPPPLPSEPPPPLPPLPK
Method in brief: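 CDK9/cyclin T1 phosphorylation of a ULight-MBP peptide was run for 1 h at room temperature in pH 7.5 HEPES buffer with MgCl2, EGTA, DTT and Tween-20. It was followed by 1 h with Eu-anti-phospho-MBP antibody (4 nM) in EDTA detection buffer. TR-FRET loss gave IC50 from 8-point, 1:3 sigmoidal dose-response curves.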

[1] = CDK7/CycH/Mat1, 25 μM ATP final, class ranges, read-out: CDK7: IC50 [nM] for CDK7 inhibition

Row | SMILES | IC50 (CDK2/CycA) [nM] | IC50 (CDK7/CycH/Mat1; [1]) [nM] | IC50 (CDK9/Cyclin T1) [nM] | Selectivity CDK7 over CDK2 (CDK2/CycA; Table 6) [fold] | IC50 (CDK7/CycH/Mat1; Table 6, read-out: IC50 CDK7) [nM] | Selectivity CDK7 over CDK9 (CDK9/Cyclin T1; Table 6) [fold]
1 | CC(C)c1cnn2c(NCc3ccccc3-n3cccn3)nc(OC3COC4(CCNCC4)C3)nc12 (stereo not drawn) [(VII-05), 2-(1-oxa-8-azaspiro[4.5]decan-3-yloxy)-N-(2-(1H-pyrazol-1-yl)benzyl)-8-isopropylpyrazolo[1,5-a][1,3,5]triazin-4-amine] | > 2500 | < 5 | > 2500 | – | – | –
2 | CC(C)c1cnn2c(NCc3ccccc3-n3cccn3)nc(N3CC(N4CCCC4=O)C3)nc12 [(VIII-047), 1-(1-(4-((2-(1H-pyrazol-1-yl)benzyl)amino)-8-isopropylpyrazolo[1,5-a][1,3,5]triazin-2-yl)azetidin-3-yl)pyrrolidin-2-one] | > 2500 | > 25 | > 2500 | – | – | –
3 | CC(C)c1cnn2c(NCc3ccccc3[S+]([O-])C3CCCC3)nc(O[C@@H]3CCCNC3)nc12 (stereo partly drawn) [(VII-153), N-(2-(cyclopentylsulfinyl)benzyl)-8-isopropyl-2-((R)-piperidin-3-yloxy)pyrazolo[1,5-a][1,3,5]triazin-4-amine] | > 2500 | 10 to 25 | > 2500 | – | – | –
4 | CC(C)c1cnn2c(NCc3ccccc3-n3cccn3)nc(NCCCN3CCOCC3)nc12 [(VIII-044), N4-(2-(1H-pyrazol-1-yl)benzyl)-8-isopropyl-N2-(3-morpholinopropyl)pyrazolo[1,5-a][1,3,5]triazine-2,4-diamine] | > 2500 | > 25 | > 2500 | – | – | –
5 | CC(C)c1cnn2c(NCc3ccccc3C3CCCC3)nc(O[C@@H]3CCCNC3)nc12 [(VII-142), (R)-N-(2-cyclopentylbenzyl)-8-isopropyl-2-(piperidin-3-yloxy)pyrazolo[1,5-a][1,3,5]triazin-4-amine] | > 2500 | > 25 | > 2500 | – | – | –
6 | CC(C)c1cnn2c(NCc3ccccc3-n3cccn3)nc(CN3CC(N4CCC(F)(F)C4)C3)nc12 [(XXX-7), N-(2-(1H-pyrazol-1-yl)benzyl)-2-((3-(3,3-difluoropyrrolidin-1-yl)azetidin-1-yl)methyl)-8-isopropylpyrazolo[1,5-a][1,3,5]triazin-4-amine] | > 2500 | > 25 | > 2500 | – | – | –
7 | CC(C)c1cnn2c(NCc3ccccc3-n3cccn3)nc(NCCOCCN)nc12 [(VIII-048), N4-(2-(1H-pyrazol-1-yl)benzyl)-N2-(2-(2-aminoethoxy)ethyl)-8-isopropylpyrazolo[1,5-a][1,3,5]triazine-2,4-diamine] | > 2500 | 10 to 25 | > 2500 | – | – | –
8 | CC(C)c1cnn2c(NCc3ccccc3-n3cccn3)nc(N3CC(N4CCC(F)(F)C4)C3)nc12 [(VIII-041), N-(2-(1H-pyrazol-1-yl)benzyl)-2-(3-(3,3-difluoropyrrolidin-1-yl)azetidin-1-yl)-8-isopropylpyrazolo[1,5-a][1,3,5]triazin-4-amine] | > 2500 | > 25 | > 2500 | – | – | –
9 | CC(C)c1cnn2c(NCc3ccccc3-c3ccccc3)nc([S+]([O-])C3CCNCC3)nc12 (stereo not drawn) [(X-3), N-([1,1′-biphenyl]-2-ylmethyl)-8-isopropyl-2-(piperidin-4-ylsulfinyl)pyrazolo[1,5-a][1,3,5]triazin-4-amine] | 500 to 2500 | 10 to 25 | > 2500 | – | – | –
10 | CC(C)c1cnn2c(NCc3ccccc3-n3cccn3)nc(NC3CCCNC3)nc12 (stereo not drawn) [(VIII-01), N4-(2-(1H-pyrazol-1-yl)benzyl)-8-isopropyl-N2-(piperidin-3-yl)pyrazolo[1,5-a][1,3,5]triazine-2,4-diamine] | 50 to 500 | < 5 | > 2500 | – | – | –
11 | CC(C)c1cnn2c(NCc3cccc4[nH]ncc34)nc(O[C@@H]3CCCNC3)nc12 [(VII-36), (R)-N-((1H-indazol-4-yl)methyl)-8-isopropyl-2-(piperidin-3-yloxy)pyrazolo[1,5-a][1,3,5]triazin-4-amine] | < 50 | < 5 | < 50 | – | – | –
12 | COc1ccccc1CNc1nc(OC2CCN(C)CC2)nc2c(C(C)C)cnn12 [(VII-71), 8-isopropyl-N-(2-methoxybenzyl)-2-((1-methylpiperidin-4-yl)oxy)pyrazolo[1,5-a][1,3,5]triazin-4-amine] | 50 to 500 | < 5 | 50 to 500 | – | – | –
13 | C#CC(C)NC(=O)c1ccccc1CNc1nc(O[C@@H]2CCCNC2)nc2c(C(C)C)cnn12 (stereo partly drawn) [(VII-109), N-(but-3-yn-2-yl)-2-(((8-isopropyl-2-((R)-piperidin-3-yloxy)pyrazolo[1,5-a][1,3,5]triazin-4-yl)amino)methyl)benzamide] | > 2500 | 10 to 25 | > 2500 | – | – | –
14 | CCNC(=O)Nc1ccccc1CNc1nc(O[C@@H]2CCCNC2)nc2c(C(C)C)cnn12 [(VII-114), (R)-1-ethyl-3-(2-(((8-isopropyl-2-(piperidin-3-yloxy)pyrazolo[1,5-a][1,3,5]triazin-4-yl)amino)methyl)phenyl)urea] | > 2500 | < 5 | > 2500 | – | – | –
15 | CC(C)c1cnn2c(NCc3ccccc3-n3cccn3)nc(NC3CCNC3)nc12 (stereo not drawn) [(VIII-043), N4-(2-(1H-pyrazol-1-yl)benzyl)-8-isopropyl-N2-(pyrrolidin-3-yl)pyrazolo[1,5-a][1,3,5]triazine-2,4-diamine] | 50 to 500 | 5 to 10 | > 2500 | – | – | –
16 | CC(C)c1cnn2c(NCc3ccccc3-c3nnnn3C)nc(O[C@@H]3CCCNC3)nc12 [(VII-29), (R)-8-isopropyl-N-(2-(1-methyl-1H-tetrazol-5-yl)benzyl)-2-(piperidin-3-yloxy)pyrazolo[1,5-a][1,3,5]triazin-4-amine] | 50 to 500 | < 5 | > 2500 | 394 | < 5 | 3255
17 | CC(C)c1cnn2c(NCc3ccccc3-n3cccn3)nc(NCCCN)nc12 [(VIII-039), N4-(2-(1H-pyrazol-1-yl)benzyl)-N2-(3-aminopropyl)-8-isopropylpyrazolo[1,5-a][1,3,5]triazine-2,4-diamine] | > 2500 | > 25 | > 2500 | – | – | –
18 | CC(C)c1cnn2c(NCc3ccccc3-c3ccccc3)nc(O[C@@H]3CCCNC3)nc12 [(VII-07), (R)-N-([1,1′-biphenyl]-2-ylmethyl)-8-isopropyl-2-(piperidin-3-yloxy)pyrazolo[1,5-a][1,3,5]triazin-4-amine] | 500 to 2500 | < 5 | 50 to 500 | – | – | –
19 | CC(C)c1cnn2c(NCc3ccccc3-n3cccn3)nc(NCCN)nc12 [(VIII-051), N4-(2-(1H-pyrazol-1-yl)benzyl)-N2-(2-aminoethyl)-8-isopropylpyrazolo[1,5-a][1,3,5]triazine-2,4-diamine] | 500 to 2500 | 5 to 10 | > 2500 | – | – | –
20 | Cc1ccc(CNc2nc(O[C@@H]3CCCNC3)nc3c(C(C)C)cnn23)c(OCC(C)C)c1 [(VII-115), (R)-N-(2-isobutoxy-4-methylbenzyl)-8-isopropyl-2-(piperidin-3-yloxy)pyrazolo[1,5-a][1,3,5]triazin-4-amine] | > 2500 | > 25 | > 2500 | – | – | –
21 | CC(C)c1cnn2c(NCc3cccc4c3cnn4C)nc(O[C@@H]3CCCNC3)nc12 [(VII-33), (R)-8-isopropyl-N-((1-methyl-1H-indazol-4-yl)methyl)-2-(piperidin-3-yloxy)pyrazolo[1,5-a][1,3,5]triazin-4-amine] | < 50 | < 5 | < 50 | – | – | –
